Our source for the TGI and GI50 values is PubChem BioAssay (NCI).

Molecules are shown by their SMILES.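 Grown in 96-well plates, cells were treated for 48 hours with each compound at five concentrations. Insufficient inhibition: endpoint recorded as highest concentration tested. GI50 is the concentration that inhibits growth by half. Definition used: TGI = concentration required for complete inhibition of growth.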

The subject of the first test is IGROV1 ovarian. Kind of test: NCI-60 cell line screen, 48 h.
Compound `CCCCCCCC(CC(=O)NC(CO)C(=O)NC(CO)CC(C)C)OC(=O)CC(CCCCCCC)OC(=O)CC(CCCCCCC)OC1OC(C)C(O)C(OC2OC(C)C(OC(C)=O)C(O)C2O)C1O` (stereo unspecified) displayed a TGI of 22.5 µM.

Compound `O=C(NN1C(=O)C(Cl)C1c1ccc(Cl)cc1)c1c(Cl)c(Cl)c(Cl)c(Cl)c1-c1nc2ccccc2[nH]1` (stereo unspecified) had a TGI of 45.8 µM.

In a further test the test system is RPMI-8226 leukemia. In words: NCI-60 cell line screen, 48 h.
Compound `O=C(O)CO[C@@]12C#C/C=C\C#C[C@@H]3N(C(=O)Oc4ccccc4)c4ccccc4[C@]14O[C@@]34CCC2` gave a TGI of more than 100 µM.

Take `N[C@@H]1CCN(c2c(F)cc3c(=O)c(C(=O)O)cn4c3c2Oc2c-4ccc3c2ccc2ccccc23)C1`: the TGI was found to be 36.3 µM.

Compound `Cc1nc2ccc(Br)cc2c(=O)n1-c1nnc(C(C)(C)C)s1` had a TGI of more than 10 µM.

The compound `Cc1ccc(C2(O)CSC(=NC34CC5CC(CC(C5)C3)C4)N2C(P(=O)(O)O)P(=O)(O)O)cc1` (stereo unspecified) yielded a TGI of more than 100 µM.

In turn, `N#Cc1c(-c2ccc(Cl)cc2)c2c(n(C3OC(CO)C(O)C(O)C3O)c1=S)CCCC2` (stereo unspecified) came in with a TGI of more than 100 µM.

Take `COC(=O)C1Cc2cc3c(cc2C1=O)CCC3` (stereo unspecified): the TGI is more than 100 µM.

Regarding `CN(/N=C/c1ccc(C(=O)O)cc1)C1=NCCCCN1`, the TGI was more than 100 µM.

On to `C=CCCON(C(=O)OC(C)(C)C)c1ccccc1`, for which the TGI is more than 100 µM.

Compound `COC(=O)[C@@H]1C=C[C@H](OC2OC(COC(C)=O)C(OC(C)=O)C(OC(C)=O)C2OC(C)=O)n2c(=O)n(-c3ccccc3)c(=O)n21` (stereo partly specified) came in with a TGI of 6.05 µM.

`Nc1ccccc1CCN1CCN(CCCc2ccccc2)CC1`: the TGI is 75.5 µM.

`CC(C)(C)C1CCC(=O)/C(=C/CC2CC(=O)N(c3ccccc3)C(=O)C2)C1` (stereo unspecified) yielded a TGI of 49.1 µM.

Another test relates to MOLT-4 leukemia. Kind of test: NCI-60 cell line screen, 48 h.
The compound `O=C1CS(=O)(=O)C(c2cccc(Oc3ccccc3)c2)N1c1ccc(Cl)cc1` (stereo unspecified) displayed a TGI of 62.7 µM.

Turning to `O=C(O)CO[C@@]12C#C/C=C\C#C[C@@H]3N(C(=O)Oc4ccccc4)c4ccccc4[C@]14O[C@@]34CCC2`, the TGI is more than 100 µM.

Regarding `CC1C2CC(C(S(=O)(=O)O)C2=O)C1(C)C` (stereo unspecified), the TGI is more than 100 µM.

Regarding `N[C@@H]1CCN(c2c(F)cc3c(=O)c(C(=O)O)cn4c3c2Oc2c-4ccc3c2ccc2ccccc23)C1`, the TGI was more than 100 µM.

Compound `Cc1cccc(Cl)c1NCC(O)CN1CCN(C)CC1` (stereo unspecified) gave a TGI of more than 100 µM.

Turning to `CNC1(c2cc3ccccc3s2)CCCCC1`, the TGI was more than 100 µM.

In turn, `Cc1nc2ccc(Br)cc2c(=O)n1-c1nnc(C(C)(C)C)s1` yielded a TGI of more than 10 µM.

Consider `Cc1ccc(C2(O)CSC(=NC34CC5CC(CC(C5)C3)C4)N2C(P(=O)(O)O)P(=O)(O)O)cc1` (stereo unspecified), for which the TGI is more than 100 µM.

In turn, `CC1(C)C2CCC1(C)C(N/C(Sc1ccccc1)=C(/C(Cl)=C(Cl)Cl)[N+](=O)[O-])C2` (stereo unspecified) registered a TGI of more than 100 µM.

For `COc1ccc(Cn2c(=O)c(OC)c(C)c3cc4ccccc4cc32)cc1`, the TGI was found to be 53 µM.

Turning to `N#Cc1c(-c2ccc(Cl)cc2)c2c(n(C3OC(CO)C(O)C(O)C3O)c1=S)CCCC2` (stereo unspecified), the TGI turned out to be 87.1 µM.

Turning to `COC(=O)C1Cc2cc3c(cc2C1=O)CCC3` (stereo unspecified), the TGI was more than 100 µM.

`CN(/N=C/c1ccc(C(=O)O)cc1)C1=NCCCCN1` came in with a TGI of more than 100 µM.

For `CCOC(=O)c1ccc(N=C/C=C(\Nc2ccc(C(=O)OCC)cc2)C23CC4CC(CC(C4)C2)C3)cc1`, the TGI was more than 100 µM.

In the case of `C=CCCON(C(=O)OC(C)(C)C)c1ccccc1`, the TGI is more than 100 µM.

Turning to `CC[C@@H](C)[C@H](NC(=O)[C@H](Cc1ccccc1)NCC(F)(F)F)C(=O)OC(C)(C)C`, the TGI was more than 100 µM.

Turning to `COC(=O)[C@@H]1C=C[C@H](OC2OC(COC(C)=O)C(OC(C)=O)C(OC(C)=O)C2OC(C)=O)n2c(=O)n(-c3ccccc3)c(=O)n21` (stereo partly specified), the TGI was 5.19 µM.

`CC(=O)SCCC(NC(=S)Nc1ccccc1)P(=O)(Oc1ccccc1)Oc1ccccc1` (stereo unspecified): the TGI was more than 100 µM.

`Nc1ccccc1CCN1CCN(CCCc2ccccc2)CC1`: the TGI is more than 100 µM.

`CC(C)(C)C1CCC(=O)/C(=C/CC2CC(=O)N(c3ccccc3)C(=O)C2)C1` (stereo unspecified) displayed a TGI of 75.2 µM.

`COc1ccc(-c2c(C(C)=O)c(-c3ccccc3)n(C3OC(CO)C(O)C(O)C3O)c(=S)c2C#N)cc1` (stereo unspecified) displayed a TGI of more than 100 µM.

For `CCCCCCCC(CC(=O)NC(CO)C(=O)NC(CO)CC(C)C)OC(=O)CC(CCCCCCC)OC(=O)CC(CCCCCCC)OC1OC(C)C(O)C(OC2OC(C)C(OC(C)=O)C(O)C2O)C1O` (stereo unspecified), the TGI was 12.2 µM.

For the compound `O=C(NN1C(=O)C(Cl)C1c1ccc(Cl)cc1)c1c(Cl)c(Cl)c(Cl)c(Cl)c1-c1nc2ccccc2[nH]1` (stereo unspecified), the TGI is more than 100 µM.

Another test has as its system A549 NSCLC. Kind of test: NCI-60 cell line screen, 48 h.
`O=C1CS(=O)(=O)C(c2cccc(Oc3ccccc3)c2)N1c1ccc(Cl)cc1` (stereo unspecified) yielded a TGI of more than 100 µM.

As to `O=C(O)CO[C@@]12C#C/C=C\C#C[C@@H]3N(C(=O)Oc4ccccc4)c4ccccc4[C@]14O[C@@]34CCC2`, the TGI is more than 100 µM.

`CC(C)(C)C1=C(Br)C(C(C)(C)C)OP1(=O)O` (stereo unspecified) had a TGI of more than 100 µM.

Consider `N[C@@H]1CCN(c2c(F)cc3c(=O)c(C(=O)O)cn4c3c2Oc2c-4ccc3c2ccc2ccccc23)C1`, for which the TGI is more than 100 µM.

Compound `Cc1cccc(Cl)c1NCC(O)CN1CCN(C)CC1` (stereo unspecified) yielded a TGI of more than 100 µM.

Turning to `CNC1(c2cc3ccccc3s2)CCCCC1`, the TGI is more than 100 µM.

In turn, `Cc1nc2ccc(Br)cc2c(=O)n1-c1nnc(C(C)(C)C)s1` had a TGI of more than 10 µM.

Take `Cc1ccc(C2(O)CSC(=NC34CC5CC(CC(C5)C3)C4)N2C(P(=O)(O)O)P(=O)(O)O)cc1` (stereo unspecified): the TGI was more than 100 µM.

On to `CC1(C)C2CCC1(C)C(N/C(Sc1ccccc1)=C(/C(Cl)=C(Cl)Cl)[N+](=O)[O-])C2` (stereo unspecified), for which the TGI was 45.9 µM.

On to `COc1ccc(Cn2c(=O)c(OC)c(C)c3cc4ccccc4cc32)cc1`, for which the TGI is more than 100 µM.

As to `N#Cc1c(-c2ccc(Cl)cc2)c2c(n(C3OC(CO)C(O)C(O)C3O)c1=S)CCCC2` (stereo unspecified), the TGI was more than 100 µM.

Turning to `COC(=O)C1Cc2cc3c(cc2C1=O)CCC3` (stereo unspecified), the TGI was more than 100 µM.

`CN(/N=C/c1ccc(C(=O)O)cc1)C1=NCCCCN1`: the TGI was more than 100 µM.

Regarding `CCOC(=O)c1ccc(N=C/C=C(\Nc2ccc(C(=O)OCC)cc2)C23CC4CC(CC(C4)C2)C3)cc1`, the TGI was more than 100 µM.

`C=CCCON(C(=O)OC(C)(C)C)c1ccccc1` registered a TGI of more than 100 µM.

The compound `CC[C@@H](C)[C@H](NC(=O)[C@H](Cc1ccccc1)NCC(F)(F)F)C(=O)OC(C)(C)C` displayed a TGI of more than 100 µM.

As for `COC(=O)[C@@H]1C=C[C@H](OC2OC(COC(C)=O)C(OC(C)=O)C(OC(C)=O)C2OC(C)=O)n2c(=O)n(-c3ccccc3)c(=O)n21` (stereo partly specified), the TGI is 30.8 µM.

`CC(=O)SCCC(NC(=S)Nc1ccccc1)P(=O)(Oc1ccccc1)Oc1ccccc1` (stereo unspecified): the TGI was more than 100 µM.

As to `CCOC(=O)Nc1cc2c(c(N)n1)N=C(c1ccc(OC)cc1)CN2`, the GI50 is 0.0204 µM and the TGI was 2.34 µM.

Regarding `Nc1ccccc1CCN1CCN(CCCc2ccccc2)CC1`, the TGI was more than 100 µM.

`CC12C=CC(C)(C3C(=O)C4C(C(=O)C31)C1(C)C=CC4(C)S1=O)S2=O` (stereo unspecified) registered a TGI of more than 100 µM.

In turn, `COc1ccc(-c2c(C(C)=O)c(-c3ccccc3)n(C3OC(CO)C(O)C(O)C3O)c(=S)c2C#N)cc1` (stereo unspecified) displayed a TGI of more than 100 µM.

With `CCCCCCCC(CC(=O)NC(CO)C(=O)NC(CO)CC(C)C)OC(=O)CC(CCCCCCC)OC(=O)CC(CCCCCCC)OC1OC(C)C(O)C(OC2OC(C)C(OC(C)=O)C(O)C2O)C1O` (stereo unspecified), the TGI was 23.8 µM.

`O=C(NN1C(=O)C(Cl)C1c1ccc(Cl)cc1)c1c(Cl)c(Cl)c(Cl)c(Cl)c1-c1nc2ccccc2[nH]1` (stereo unspecified) registered a TGI of more than 100 µM.

The subject of a further test is MCF7 breast. In words: NCI-60 cell line screen, 48 h.
In the case of `O=C1CS(=O)(=O)C(c2cccc(Oc3ccccc3)c2)N1c1ccc(Cl)cc1` (stereo unspecified), the TGI was determined as 31.9 µM.

In turn, `O=C(O)CO[C@@]12C#C/C=C\C#C[C@@H]3N(C(=O)Oc4ccccc4)c4ccccc4[C@]14O[C@@]34CCC2` yielded a TGI of 46.7 µM.

In the case of `CC(C)(C)C1=C(Br)C(C(C)(C)C)OP1(=O)O` (stereo unspecified), the TGI was more than 100 µM.

Turning to `CC1C2CC(C(S(=O)(=O)O)C2=O)C1(C)C` (stereo unspecified), the TGI is more than 100 µM.

Regarding `N[C@@H]1CCN(c2c(F)cc3c(=O)c(C(=O)O)cn4c3c2Oc2c-4ccc3c2ccc2ccccc23)C1`, the TGI turned out to be 3.34 µM.
